In this experiment the test system is BDF1 mice, B16 melanoma ip, median survival T/C. The experiment can be described thus: NCI In Vivo Anticancer Drug Screen. Data for tumor model B16 Melanoma (intraperitoneal) in B6D2F1 (BDF1) mice. As to conditions: endpoint: median survival time, higher = longer survival. Here is the method: The antitumor activity of compounds was measured in mice bearing transplantable tumors. Survival or tumor size were measured and the results are expressed as the measurement made in the treated group (T) divided by the measurement made in the vehicle treated control group (C). The tumor model used in this assay is B16 Melanoma (intraperitoneal) in B6D2F1 (BDF1) mice

The mark [1] stands for this setting: dose: 50.0 mg/kg/injection, schedule: Q01DX009 (ip), vehicle: saline.
Where [2] appears, read: dose: 100.0 mg/kg/injection, schedule: Q01DX009 (ip), vehicle: saline.
The mark [3] stands for this setting: dose: 200.0 mg/kg/injection, schedule: Q01DX009 (ip), vehicle: saline.
Where [4] appears, read: dose: 25.0 mg/kg/injection, schedule: Q01DX009 (ip), vehicle: Klucel (hydroxypropylcellulose) (HPC).
Setting [5] is: dose: 50.0 mg/kg/injection, schedule: Q01DX009 (ip), vehicle: Klucel (hydroxypropylcellulose) (HPC).
The mark [6] stands for this setting: dose: 200.0 mg/kg/injection, schedule: Q01DX009 (ip), vehicle: Klucel (hydroxypropylcellulose) (HPC).
The mark [7] stands for this setting: dose: 100.0 mg/kg/injection, schedule: Q01DX009 (ip), vehicle: Klucel (hydroxypropylcellulose) (HPC).
Setting [8] is: dose: 50.0 mg/kg/injection, schedule: Q01DX009 (ip), vehicle: saline with Tween-80.
Where [9] appears, read: dose: 12.5 mg/kg/injection, schedule: Q01DX009 (ip), vehicle: saline.
Setting [10] is: dose: 25.0 mg/kg/injection, schedule: Q01DX009 (ip), vehicle: saline.
[11] abbreviates: dose: 400.0 mg/kg/injection, schedule: Q01DX009 (ip), vehicle: Klucel (hydroxypropylcellulose) (HPC).
The mark [12] stands for this setting: dose: 0.5 mg/kg/injection, schedule: Q01DX009 (ip), vehicle: saline.
[13] abbreviates: dose: 1.0 mg/kg/injection, schedule: Q01DX009 (ip), vehicle: saline.
[14] abbreviates: dose: 2.0 mg/kg/injection, schedule: Q01DX009 (ip), vehicle: saline.

Where “and” joins values, the source holds several entries; their conditions need not be identical. Equal entries are not always repeated. Toxic doses and inconclusive results are not listed.

Turning to `Nc1ncc(N)c(N)n1`, the T/C reads like this: under setting [1], 102 % of control; under setting [2], 112 % of control; under setting [3], 108 % of control.

As to `CCCCCCCCCCCCCCCC#N`, the T/C is 99 % of control (dose: 25.0 mg/kg/injection, schedule: Q04DX003 (ip), vehicle: Klucel (hydroxypropylcellulose) (HPC)); 96 % of control (dose: 50.0 mg/kg/injection, schedule: Q04DX003 (ip), vehicle: Klucel (hydroxypropylcellulose) (HPC)); 92 % of control (dose: 100.0 mg/kg/injection, schedule: Q04DX003 (ip), vehicle: Klucel (hydroxypropylcellulose) (HPC)).

Regarding `O=C(O)CN(CCN(CC(=O)O)CC(=O)O)CCN(CC(=O)O)CC(=O)O`, the T/C reads like this: (dose: 3.12 mg/kg/injection, schedule: Q01DX009 (ip), vehicle: Klucel (hydroxypropylcellulose) (HPC)) 94 % of control; (dose: 6.25 mg/kg/injection, schedule: Q01DX009 (ip), vehicle: Klucel (hydroxypropylcellulose) (HPC)) 93 % of control and 94 % of control; (dose: 12.5 mg/kg/injection, schedule: Q01DX009 (ip), vehicle: Klucel (hydroxypropylcellulose) (HPC)) 102 % of control; under setting [4], 96 % of control; under setting [5], 88 % of control; under setting [6], 92 % of control.

Regarding `O=c1oc(-c2ccco2)nc2ccccc12`, the T/C reads like this: under setting [5], 112 % of control; under setting [7], 106 % of control; under setting [6], 112 % of control.

Consider `Cc1ccc(S(=O)(=O)NC(CSCc2ccccc2)C(=O)O)cc1` (stereo not drawn), for which the T/C was 92 % of control under setting [8] and 86 % of control (dose: 100.0 mg/kg/injection, schedule: Q01DX009 (ip), vehicle: saline with Tween-80).

Consider `CCN(CC)CCNCCN`, for which the T/C is, setting by setting: under setting [9], 94 % of control; under setting [10], 97 % of control; under setting [1], 94 % of control.

For `O=c1cnn(C2OC(CO)C(O)C2O)c(=O)[nH]1` (stereo not drawn), the T/C is 99 % of control and 100 % of control (dose: 75.0 mg/kg/injection, schedule: Q01DX009 (ip), vehicle: Klucel (hydroxypropylcellulose) (HPC)); 116 % of control (dose: 125.0 mg/kg/injection, schedule: Q03HX024 (ip), vehicle: water); 119 % of control (dose: 125.0 mg/kg/injection, schedule: Q03HX032 (ip), vehicle: water); 92 % of control and 101 % of control (dose: 150.0 mg/kg/injection, schedule: Q01DX009 (ip), vehicle: Klucel (hydroxypropylcellulose) (HPC)); 124 % of control (dose: 250.0 mg/kg/injection, schedule: Q03HX024 (ip), vehicle: water); 100 % of control and 102 % of control (dose: 300.0 mg/kg/injection, schedule: Q01DX009 (ip), vehicle: Klucel (hydroxypropylcellulose) (HPC)). The T/C was 101 % of control and 102 % of control (dose: 600.0 mg/kg/injection, schedule: Q01DX009 (ip), vehicle: Klucel (hydroxypropylcellulose) (HPC)); 99 % of control (dose: 1200.0 mg/kg/injection, schedule: Q01DX009 (ip), vehicle: Klucel (hydroxypropylcellulose) (HPC)).

In the case of `Cc1c(Cl)cccc1NC(=O)c1ccccc1Cl`, the T/C reads like this: under setting [7], 100 % of control; under setting [6], 93 % of control; under setting [11], 94 % of control.

As for `O=C1C(N2CCCC2)=C(N2CC2)C(=O)C(N2CCCC2)=C1N1CC1`, the T/C (dose: 0.25 mg/kg/injection, schedule: Q01DX009 (ip), vehicle: saline) is 100 % of control; the T/C under setting [12] was 114 % of control; the T/C under setting [13] was 111 % of control; the T/C under setting [14] was 118 % of control.

Take `NC(CCC(=O)NC(CS)C(=O)NCC(=O)O)C(=O)O` (stereo not drawn): the T/C runs as follows: under setting [1], 124 % of control; under setting [2], 98 % of control; under setting [3], 98 % of control; (dose: 400.0 mg/kg/injection, schedule: Q01DX009 (ip), vehicle: saline) 100 % of control.

With `CC(C)CC(NC(=O)C(O)C(N)Cc1ccccc1)C(=O)O` (stereo not drawn), the T/C was 97 % of control (dose: 0.05 mg/kg/injection, schedule: Q01DX009 (oral), vehicle: saline); 97 % of control (dose: 0.5 mg/kg/injection, schedule: Q01DX009 (oral), vehicle: saline); 96 % of control (dose: 5.0 mg/kg/injection, schedule: Q01DX009 (oral), vehicle: saline).

As for `COc1cccc(C(Cc2ccccc2)NCc2ccccc2)c1` (stereo not drawn), the T/C is, setting by setting: under setting [7], 106 % of control; under setting [6], 100 % of control; under setting [11], 96 % of control.

Consider `COc1cc(NC(N)=O)ccc1Nc1c2ccc(N)cc2nc2cc(N)ccc12`, for which the T/C reads like this: under setting [12], 104 % of control; under setting [13], 102 % of control; under setting [14], 108 % of control; (dose: 4.0 mg/kg/injection, schedule: Q01DX009 (ip), vehicle: saline) 102 % of control; (dose: 8.0 mg/kg/injection, schedule: Q01DX009 (ip), vehicle: saline) 102 % of control; (dose: 16.0 mg/kg/injection, schedule: Q01DX009 (ip), vehicle: saline) 104 % of control.

For `CCOc1ccc(C2NC(=O)c3ccccc3N2)cc1` (stereo not drawn), the T/C by setting is: under setting [7], 105 % of control; under setting [6], 98 % of control; under setting [11], 94 % of control.

With `C#CCOCC(O)CN` (stereo not drawn), the T/C was 104 % of control (dose: 100.0 mg/kg/injection, schedule: Q04DX003 (ip), vehicle: saline); 100 % of control (dose: 200.0 mg/kg/injection, schedule: Q04DX003 (ip), vehicle: saline); 102 % of control (dose: 400.0 mg/kg/injection, schedule: Q04DX003 (ip), vehicle: saline).

On to `CN(C)C(=O)c1cccc(COc2ccc(N3C(N)=NC(N)=NC3(C)C)cc2Cl)c1`, for which the T/C was 120 % of control (dose: 1.56 mg/kg/injection, schedule: Q01DX009 (ip), vehicle: saline); 120 % of control (dose: 3.13 mg/kg/injection, schedule: Q01DX009 (ip), vehicle: saline); 117 % of control (dose: 6.25 mg/kg/injection, schedule: Q01DX009 (ip), vehicle: saline); 104 % of control and 105 % of control under setting [9]; 104 % of control and 117 % of control under setting [10]; 100 % of control under setting [1].

Turning to `Cc1cc(C)c(C(=O)CC(=O)c2cccnc2)c(C)c1`, the T/C (dose: 100.0 mg/kg/injection, schedule: Q01DX009 (ip), vehicle: saline + Tween-80 + alcohol) was 98 % of control and the T/C (dose: 200.0 mg/kg/injection, schedule: Q01DX009 (ip), vehicle: saline + Tween-80 + alcohol) was 91 % of control.

Turning to `CC(Br)C(=O)NCC(=O)O` (stereo not drawn), the T/C runs as follows: under setting [9], 101 % of control; under setting [10], 90 % of control; under setting [8], 95 % of control; under setting [1], 101 % of control.

`C/C=C(\C)C(=O)OC1C(C)C2(O)C(C=C(CO)CC3(O)C(=O)C(C)=CC32)C2C(C)(C)C12OC(=O)CCCCCCCCC` (stereo not drawn): the T/C (dose: 0.13 mg/kg/injection, schedule: Q01DX009 (ip), vehicle: saline + alcohol) is 102 % of control and 104 % of control; the T/C (dose: 0.25 mg/kg/injection, schedule: Q01DX009 (ip), vehicle: saline + alcohol) is 92 % of control and 94 % of control; the T/C (dose: 0.5 mg/kg/injection, schedule: Q01DX009 (ip), vehicle: saline + alcohol) is 92 % of control.

On to `CC(=O)O[C@H]1C(=O)O[C@@H]2C[C@H]3C(C)=CC(=O)[C@@H](O)[C@]3(C)[C@H]3[C@@]4(O)OC[C@]32[C@@H]1[C@@H](C)[C@H]4O`, for which the T/C runs as follows: (dose: 0.39 mg/kg/injection, schedule: Q01DX009 (ip), vehicle: saline with Tween-80) 101 % of control; (dose: 0.78 mg/kg/injection, schedule: Q01DX009 (ip), vehicle: saline with Tween-80) 105 % of control; (dose: 1.5 mg/kg/injection, schedule: Q01DX009 (ip), vehicle: Klucel (hydroxypropylcellulose) (HPC)) 112 % of control; (dose: 1.5 mg/kg/injection, schedule: Q01DX009 (ip), vehicle: saline) 112 % of control; (dose: 1.56 mg/kg/injection, schedule: Q01DX009 (ip), vehicle: saline with Tween-80) 96 % of control; (dose: 3.13 mg/kg/injection, schedule: Q01DX009 (ip), vehicle: saline with Tween-80) 107 % of control. The T/C (dose: 6.25 mg/kg/injection, schedule: Q01DX009 (ip), vehicle: saline with Tween-80) is 107 % of control; the T/C (dose: 12.0 mg/kg/injection, schedule: Q01DX009 (ip), vehicle: saline) was 164 % of control; the T/C (dose: 12.5 mg/kg/injection, schedule: Q01DX009 (ip), vehicle: saline with Tween-80) was 118 % of control.

Take `C=CCOP(=O)(OCC=C)OCC=C`: the T/C is, setting by setting: under setting [4], 96 % of control; under setting [5], 100 % of control.

Source of the values: PubChem BioAssay AID192 (DTP/NCI, 2004).
